Entries after “also recorded” stand apart in the source; their conditions may differ.
Target: DRB1*0101, 0301, 0401, 0701, 1101, 1301,1501 (Homo sapiens, UniProt P01903+P01911, A100R/D57E/F55L/F60I/F76Y/I96L/L162R/M171V/P40L/Q125E/R42F/V115G/Y59C)
Assay: REVEAL Class II binding assay and Quick Check Stability Assay (MHC-peptide binding)
Conditions: 7 DRB1 alleles; stability index ≧1.0 considered positive for MHC binding
Description: The MHC restriction of peptides from ProPred prediction were evaluated using the REVEAL Class II binding assay and Quick Check Stability Assay performed by ProImmune (Oxford, United Kingdom). In the REVEAL cell free in vitro assay, the binding of a peptide to an HLA molecule is determined by its ability to stabilize a MHC class II-peptide complex. Each MHC class II-peptide binding was scored relative to a validated proprietary T cell epitope control peptide. The score was determined as the percentage of the signal generated by the test peptide versus the level for the positive control peptide and reflects the on-rate properties of peptide. The off-rate properties of the peptide were determined by the Quick Check Stability Assay which measured the amount of peptide bound at time zero and time 24 hours at 37° C. The two signals were used to estimate a half-life which was multiplied by the REVEAL score and divided by 100 to yield the combined stability index. A stability index ≧1.0 was considered positive for MHC binding.
To confirm ProPred predictions and to validate peptides for continued analysis using IL-4 ELISPOT, an in vitro MHC-peptide binding assay was used to measure binding of 22/25 15mers (excluding p3-17, 42-56, and 43-57) to the 7 DRB1 alleles which accounted for the majority of the ProPred predictions (Table II). […] High stringency binding prediction rates were accurate for alleles *0301 (none predicted) and *1501 (none predicted), while inaccurate with low stringency positive binding prediction rates of 0% (0/10) and 25% (1/4), respectively. Both alleles *0301 and *1501 had low false negative rates of 8% (1/12) and 6% (1/18), respectively. ProPred was inaccurate at both high and low stringency for the three remaining alleles with a 0% binding prediction rate for *0701 (0/9), *1101 (0/14) and *1301 (0/7) but also yielding 0% false negative rates at 0/13, 0/8 and 0/14, respectively. […]

Compound | in vitro binding to DRB1 alleles
H-EGDYVWKISEFYGRK-OH [p35-49] | non-binding; also recorded: no in vitro binding to any DRB1 allele
H-SGLLLKQKVSDDITY-OH [p104-118] | non-binding; also recorded: no in vitro binding to any DRB1 allele
H-RSGLLLKQKVSDDIT-OH [p103-117] | non-binding; also recorded: no in vitro binding to any DRB1 allele

System: PBMCs of Alternaria allergic patients and control subjects
Assay: IL-4 ELISPOT of PBMCs exposed to peptide
Assay type: cell-based, human
Conditions: Alt a 5 peptide; three Alternaria patients; methods as Example 1
Text: Peripheral blood was obtained by venipuncture from Alternaria allergic patients and non-sensitized controls. Peripheral blood mononuclear cells (PBMCs) were isolated from heparinized blood by standard Ficoll density gradient centrifugation. PBMCs were washed with CTL (Cellular Technology Limited, Cleveland, Ohio, USA) wash medium containing RPMI-1640 with L-glutamine (Lonza, Basel, Switzerland) before being counted by haemocytometer using trypan blue stain (Sigma). PBMCs (10 million/ml) were resuspended in CTL-Cryo ABC serum-free freezing medium according to the manufacturer's protocol before being frozen overnight at −80° C. and transferred to and stored in liquid nitrogen until time of use.
Enzyme-linked immunospot assay (ELISPOT) analysis was performed utilizing 16 Alternaria patients and 11 controls. For an individual peptide the number of Alternaria patients tested ranged between 10-15 and the number of control subjects ranged between 7-9. Ten Alternaria patients were fully tested with all 22 peptides. For ELISPOT, the BD ELISPOT Human IL-4 Set (BD Biosciences, San Diego, Calif., USA) was used to analyze IL-4 production by human PBMCs. Plates were coated overnight at 4° C. with IL-4 capture antibody (BD Biosciences) and then washed 3 times with Dulbecco's Phosphate Buffer Saline (DPBS, Sigma). Plates were blocked with 1% BSA (Sigma) in PBS for 2 h at room temperature and washed 3 times with DPBS. Cryopreserved Alternaria patient and control subject PBMCs were thawed rapidly, washed, counted, and resuspended in CTL Test Medium supplemented with 2 mM L-glutamine (Sigma) and used at a concentration of 300,000 cells/well contained in 100 μl. […] The plates were dried and analyzed on the ImmunoSpot UV Core ELISPOT Plate Reader (Cellular Technology Limited).
The two-independent sample Wilcoxon rank sum test was used for statistical analysis of ELISPOT data (26). A one-sided control<patient p-value was determined except for peptides 7-21 and 143-157 where a one-sided patient >control p-value was calculated. […]
Two methods were evaluated to interpret the IL-4 ELISPOT spot count data. […]

Compound | activity in Alternaria patients (ELISPOT)
H-AAYLLLGLGGNTSPS-OH [p5-19] | active in all 3 patients

Same assay, conditions: IL-4 ELISPOT, cut-off >9 spot counts

Compound | number of patients stimulated
CC[C@H](C)[C@H](NC(=O)[C@H](Cc1ccc(O)cc1)NC(=O)[C@H](C)NC(=O)[C@H](CC(=O)O)NC(=O)[C@H](C)NC(=O)[C@@H](N)C(C)C)C(=O)N[C@H](C(=O)N[C@@H](CC(C)C)C(=O)N[C@H](C(=O)N[C@H](C(=O)N[C@@H](CC(C)C)C(=O)N1CCC[C@H]1C(=O)N[C@@H](CCCCN)C(=O)N[C@@H](CO)C(=O)N[C@@H](CO)C(=O)O)[C@@H](C)O)C(C)C)[C@@H](C)O [p143-157] | one
H-LQFTTIASLFAAAGL-OH [p1-15] | one

System: not listed separately
Assay: Peptide solubility in sterile pure water
Assay type: physicochemical
Conditions: not given
Description: The theoretical average peptide hydrophilicity was calculated using the Hopp and Woods scale (28). For solubility determination, peptides were dissolved in sterile pure water at 50mg/ml (pH=7), mixed, centrifuged and the presence of a pellet indicated insolubility. Insoluble peptides were sequentially diluted and tested down to 2.5mg/ml or until solubility was observed. Peptides not fully dissolved at 2.5mg/ml were considered insoluble in this study.

Compound | solubility in H2O
CC[C@H](C)[C@H](NC(=O)[C@H](Cc1ccc(O)cc1)NC(=O)[C@H](C)NC(=O)[C@H](CC(=O)O)NC(=O)[C@H](C)NC(=O)[C@@H](N)C(C)C)C(=O)N[C@H](C(=O)N[C@@H](CC(C)C)C(=O)N[C@H](C(=O)N[C@H](C(=O)N[C@@H](CC(C)C)C(=O)N1CCC[C@H]1C(=O)N[C@@H](CCCCN)C(=O)N[C@@H](CO)C(=O)N[C@@H](CO)C(=O)O)[C@@H](C)O)C(C)C)[C@@H](C)O [p143-157] | insoluble
H-ENSLGFNIKATNGGT-OH [p55-69:Y55E] | soluble
H-AADAYITLVTLPKSS-OH [p143-157:V143A] | insoluble
H-SNSLGFNIKATNGGT-OH [p55-69:Y55S] | soluble
H-EDDITYVATATLPNY-OH [p113-127:S113E] | insoluble
H-SADAYITLVTLPKSS-OH [p143-157:V143S] | soluble
H-EKDFVVQGVADAYIT-OH [p135-149:P135E] | insoluble
H-EETYYNSLGFNIKAT-OH [p51-65:G52E] | insoluble
H-ETYYNSLGFNIKATN-OH [p52-66:G52E] | insoluble
H-STYYNSLGFNIKATN-OH [p52-66:G52S] | soluble
H-ESTYYNSLGFNIKAT-OH [p51-65:G52S] | soluble
CC[C@H](C)[C@H](N)C(=O)N[C@@H](C)C(=O)N[C@@H](CO)C(=O)N[C@@H](CC(C)C)C(=O)N[C@@H](Cc1ccccc1)C(=O)N[C@@H](C)C(=O)N[C@@H](C)C(=O)N[C@@H](C)C(=O)NCC(=O)N[C@@H](CC(C)C)C(=O)N[C@@H](C)C(=O)N[C@@H](C)C(=O)N[C@@H](C)C(=O)N[C@@H](C)C(=O)N1CCC[C@H]1C(=O)O [p6-20] | insoluble
H-LQFTTIASLFAAAGL-OH [p1-15] | insoluble
H-ANSLGFNIKATNGGT-OH [p55-69:Y55A] | soluble
H-VNSLGFNIKATNGGT-OH [p55-69:Y55V] | insoluble
H-SKDFVVQGVADAYIT-OH [p135-149:P135S] | insoluble
H-EADAYITLVTLPKSS-OH [p143-157:V143E] | soluble
H-PKDFVVQGVADAYIT-OH [p135-149] | insoluble

Same assay, conditions: sterile pure water pH=7, 50mg/ml diluted down to 2.5mg/ml; not fully dissolved at 2.5mg/ml = insoluble

Compound | solubility in H2O
H-YNSLGFNIKATNGGT-OH [p55-69] | insoluble
H-EGTYYNSLGFNIKAT-OH [p51-65] | insoluble
H-FTTIASLFAAAGLAA-OH [p3-17] | insoluble
H-SDDITYVATATLPNY-OH [p113-127] | insoluble
H-GTYYNSLGFNIKATN-OH [p52-66] | insoluble
H-ASLFAAAGLAAAAPL-OH [p7-21] | insoluble

System: T cells expanded for 14 days with allergen extract and IL-2
Assay: not given
Conditions: allergic population; cited from earlier work

Compound | IL-5 and INF-γ ELISPOT result
CC[C@H](C)[C@H](NC(=O)[C@H](Cc1ccc(O)cc1)NC(=O)[C@H](C)NC(=O)[C@H](CC(=O)O)NC(=O)[C@H](C)NC(=O)[C@@H](N)C(C)C)C(=O)N[C@H](C(=O)N[C@@H](CC(C)C)C(=O)N[C@H](C(=O)N[C@H](C(=O)N[C@@H](CC(C)C)C(=O)N1CCC[C@H]1C(=O)N[C@@H](CCCCN)C(=O)N[C@@H](CO)C(=O)N[C@@H](CO)C(=O)O)[C@@H](C)O)C(C)C)[C@@H](C)O [p143-157] | positive for IL-5 only
CC[C@H](C)[C@H](N)C(=O)N[C@@H](C)C(=O)N[C@@H](CO)C(=O)N[C@@H](CC(C)C)C(=O)N[C@@H](Cc1ccccc1)C(=O)N[C@@H](C)C(=O)N[C@@H](C)C(=O)N[C@@H](C)C(=O)NCC(=O)N[C@@H](CC(C)C)C(=O)N[C@@H](C)C(=O)N[C@@H](C)C(=O)N[C@@H](C)C(=O)N[C@@H](C)C(=O)N1CCC[C@H]1C(=O)O [p6-20] | positive for IL-5 only
H-LQFTTIASLFAAAGL-OH [p1-15] | negative to both cytokines
